Assay results reported in patent US20070128217A1 (priority 2003, published 2007).

Experiments:
[1] = test system: antibodies in sera from SARS patients (sera 1a, 1b, 2, 6, 37, 62, London, SARS-yellow, SARS-green); type: binding, human; design: Binding of serum 6 to linear peptides of protein X1 of SARS-CoV Urbani / Binding of serum 37 to linear peptides of protein X1 of SARS-CoV Urbani / Binding of serum 6 to looped/cyclic peptide (PEPSCAN-ELISA) / Binding of serum 37 to looped/cyclic peptide (PEPSCAN-ELISA) / Binding of serum 37 to looped/cyclic peptides of protein X1 of SARS-CoV Urbani / Binding of serum 6 to linear peptides of protein X2 / Binding of serum 37 to linear peptides of protein X2 / Binding of serum 37 to looped/cyclic peptides of protein X2 of SARS-CoV Urbani / Binding of serum 6 to linear peptides of protein M of SARS-CoV Urbani / Binding of serum 37 to linear peptides of protein M of SARS-CoV Urbani / Binding of serum 6 to looped/cyclic peptides of protein M of SARS-CoV Urbani / Binding of serum 37 to looped/cyclic peptides of protein M of SARS-CoV Urbani / Binding of serum 6 to linear peptides of protein X3 of SARS-CoV Urbani / Binding of serum 37 to linear peptides of protein X3 of SARS-CoV Urbani / Binding of serum 37 to looped/cyclic peptides of protein X3 of SARS-CoV Urbani / Binding of serum 6 to linear peptides of protein X4 of SARS-CoV Urbani / Binding of serum 37 to linear peptides of protein X4 of SARS-CoV Urbani / Binding of serum 37 to looped/cyclic peptides of protein X4 of SARS-CoV Urbani / Binding of serum 6 to linear peptides of protein X5 of SARS-CoV Urbani / Binding of serum 37 to linear peptides of protein X5 of SARS-CoV Urbani / Binding of serum 37 to looped/cyclic peptides of protein X5 of SARS-CoV Urbani / Binding of serum 6 to linear peptides of protein N of SARS-CoV Urbani / Binding of serum 37 to linear peptides of protein N of SARS-CoV Urbani / Binding of serum 6 to linear peptide (PEPSCAN-ELISA) / Binding of serum 1a to looped/cyclic peptides of protein N of SARS-CoV Urbani / Binding of serum 1b to looped/cyclic peptides of protein N of SARS-CoV Urbani / Binding of serum 2 to looped/cyclic peptides of protein N of SARS-CoV Urbani / Binding of serum 6 to looped/cyclic peptides of protein N of SARS-CoV Urbani / Binding of serum 37 to looped/cyclic peptides of protein N of SARS-CoV Urbani / Binding of serum 62 to looped/cyclic peptides of protein N of SARS-CoV Urbani / Binding of serum London to looped/cyclic peptides of protein N of SARS-CoV Urbani / Binding of serum SARS-green to looped/cyclic peptides of protein N of SARS-CoV Urbani: unit not given here
[2] = test system: rabbit serum obtained by immunizing a rabbit with the SARS-CoV strain Frankfurt 1; type: binding; design: Binding of a rabbit serum to linear peptides / Binding of a rabbit serum to looped peptides / Rabbit serum linear peptides / Rabbit serum looped peptides / Binding of a rabbit serum to linear peptides of protein N of SARS-CoV Urbani (Rabbit serum linear peptides) / Binding of a rabbit serum to looped/cyclic peptides of protein N of SARS-CoV Urbani (Rabbit serum looped peptides): unit not given here
[3] = test system: recombinant human anti-SARS-CoV antibody 03-018; type: binding; design: Binding of antibody 03-018 to linear peptides of the N protein of SARS-CoV Urbani / Binding of antibody 03-018 to looped/cyclic peptides of the N protein of SARS-CoV Urbani: unit not given here
[4] = test system: control sera (pooled serum of ten healthy LUMC hospital workers; commercial negative donor pooled serum from the Dutch bloodbank); type: binding, human; design: Binding of Control serum LUMC to linear peptides / Binding of Control serum Blood-bank to linear peptides / Binding of Control serum LUMC to looped peptides / Binding of Control Serum Blood-Bank to Looped peptides / Binding of Control serum LUMC to linear peptides of the protein M of SARS-CoV Urbani / Binding of Control serum Blood-bank to linear peptides of the protein M of SARS-CoV Urbani / Binding of Control serum LUMC to looped peptides of the protein M of SARS-CoV Urbani / Binding of Control Serum Blood-Bank to Looped peptides of the protein M of SARS-CoV Urbani: unit not given here

| Sequence | Binding of serum 1a to looped/cyclic peptides of protein N of SARS-CoV Urbani [1] | Binding of serum 1b to looped/cyclic peptides of protein N of SARS-CoV Urbani [1] | Binding of serum 2 to looped/cyclic peptides of protein N of SARS-CoV Urbani [1] | Binding of serum 6 to looped/cyclic peptides of protein N of SARS-CoV Urbani [1] | Binding of serum 37 to looped/cyclic peptides of protein N of SARS-CoV Urbani [1] | Binding of serum 62 to looped/cyclic peptides of protein N of SARS-CoV Urbani [1] | Binding of serum London to looped/cyclic peptides of protein N of SARS-CoV Urbani [1] | Binding of serum SARS-green to looped/cyclic peptides of protein N of SARS-CoV Urbani [1] | Binding of serum SARS-yellow to looped/cyclic peptides of protein N of SARS-CoV Urbani [1] | Binding of a rabbit serum to linear peptides of protein N of SARS-CoV Urbani (Rabbit serum linear peptides) [2] | Binding of a rabbit serum to looped/cyclic peptides of protein N of SARS-CoV Urbani (Rabbit serum looped peptides) [2] | Binding of antibody 03-018 to linear peptides of the N protein of SARS-CoV Urbani [3] | Binding of antibody 03-018 to looped/cyclic peptides of the N protein of SARS-CoV Urbani [3] | Binding of Control Serum Blood-Bank to Looped peptides [4] | Binding of Control serum Blood-bank to linear peptides [4] | Binding of Control serum LUMC to linear peptides [4] | Binding of Control serum LUMC to looped peptides [4] | further results |
| --- | --- | --- | --- | --- | --- | --- | --- | --- | --- | --- | --- | --- | --- | --- | --- | --- | --- | --- |
| QAFGRRGPEQTQGNF | 0.3 | 0.2 | 0.3 | 0.2 | 0.3 | 0.3 | 0.3 | 0.2 | 0.2 | 0.1 | 0.3 | 0.1 | 0.2 | 0.4 | 0.9 | 0.7 | 0.4 | Binding of serum 1a to linear peptide (PEPSCAN-ELISA) [1]: 0.3; Binding of serum 1b to linear peptide (PEPSCAN-ELISA) [1]: 0.1; Binding of serum 2 to linear peptide (PEPSCAN-ELISA) [1]: 0.2; Binding of serum 6 to linear peptide (PEPSCAN-ELISA) [1]: 0.2; Binding of serum 37 to linear peptide (PEPSCAN-ELISA) [1]: 0.6; Binding of serum 62 to linear peptide (PEPSCAN-ELISA) [1]: 0.8; Binding of serum London to linear peptide (PEPSCAN-ELISA) [1]: 0.7; Binding of serum SARS-green to linear peptide (PEPSCAN-ELISA) [1]: 0.2; Binding of serum SARS-yellow to linear peptide (PEPSCAN-ELISA) [1]: 0.4 |
| QGVPINTNSGPDDQI | 0.5 | 0.4 | 0.6 | 0.4 | 0.6 | 1.0 | 0.6 | 1.3 | 1.7 | 0.2 | 0.8 | 0.1 | 0.1 | 1.1 | 0.6 | 0.6 | 0.8 | Binding of serum 1a to linear peptides of protein N of SARS-CoV Urbani [1]: 0.3; Binding of serum 1b to linear peptides of protein N of SARS-CoV Urbani [1]: 0.2; Binding of serum 2 to linear peptides of protein N of SARS-CoV Urbani [1]: 0.2; Binding of serum 6 to linear peptides of protein N of SARS-CoV Urbani [1]: 0.2; Binding of serum 37 to linear peptides of protein N of SARS-CoV Urbani [1]: 0.9; Binding of serum 62 to linear peptides of protein N of SARS-CoV Urbani [1]: 0.6; Binding of serum London to linear peptides of protein N of SARS-CoV Urbani [1]: 0.5; Binding of serum SARS-green to linear peptides of protein N of SARS-CoV Urbani [1]: 0.6; Binding of serum SARS-yellow to linear peptides of protein N of SARS-CoV Urbani [1]: 0.6 |
